Assay results taken from US7432275B2, “Carboxylic acid, phosphate or phosphonate substituted quinazolin-4-ylamine analogues as capsaicin receptor modulators” (Neurogen Corporation, priority 2002, dated 2008).

These compounds were tested against T1, human capsaicin receptor (Homo sapiens, UniProt Q8NER1) (assay: Capsaicin receptor binding assay ([3H]RTX competition, membranes of VR1-transfected HEK293 cells)). Conditions: not given.
Text: This Example illustrates the preparation of VR1-transfected cells and membrane preparations for use in binding assays (Example 5) and functional assays (Example 6).
This Example illustrates a representative assay of capsaicin receptor binding that may be used to determine the binding affinity of compounds for the capsaicin (VR1) receptor.
Binding studies with [^3H] […] 262:883-888.

T1 sequence (Q8NER1 whole entry): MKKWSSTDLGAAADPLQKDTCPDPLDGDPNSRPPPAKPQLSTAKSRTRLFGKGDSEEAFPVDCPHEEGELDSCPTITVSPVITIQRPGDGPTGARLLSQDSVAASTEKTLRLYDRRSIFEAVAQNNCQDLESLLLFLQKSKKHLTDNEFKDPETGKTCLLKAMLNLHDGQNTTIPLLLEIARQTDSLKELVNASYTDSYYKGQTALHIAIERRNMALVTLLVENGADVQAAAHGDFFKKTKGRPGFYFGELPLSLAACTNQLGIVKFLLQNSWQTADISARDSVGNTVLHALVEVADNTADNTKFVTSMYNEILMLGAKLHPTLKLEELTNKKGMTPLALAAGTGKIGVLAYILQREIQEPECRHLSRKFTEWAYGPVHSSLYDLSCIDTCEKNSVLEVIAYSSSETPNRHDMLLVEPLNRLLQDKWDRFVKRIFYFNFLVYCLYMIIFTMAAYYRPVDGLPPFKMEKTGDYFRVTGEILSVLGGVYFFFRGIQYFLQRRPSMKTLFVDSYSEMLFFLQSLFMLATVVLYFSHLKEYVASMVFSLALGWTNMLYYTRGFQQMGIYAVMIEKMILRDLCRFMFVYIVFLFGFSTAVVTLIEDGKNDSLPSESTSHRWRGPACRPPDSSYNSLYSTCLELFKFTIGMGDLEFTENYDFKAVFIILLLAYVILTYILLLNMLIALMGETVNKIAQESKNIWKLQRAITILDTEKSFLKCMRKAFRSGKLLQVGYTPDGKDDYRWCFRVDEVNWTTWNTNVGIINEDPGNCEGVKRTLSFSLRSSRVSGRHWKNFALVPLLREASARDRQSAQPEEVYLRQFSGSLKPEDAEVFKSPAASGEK

Row | SMILES | Ki
1 | CCOP(=O)(Cc1nc(Nc2ccc(C(F)(F)F)cc2)c2ccc(-c3ncccc3C)cc2n1)OCC [Compound 5, [7-(3-Methyl-pyridin-2-yl)-4-(4-trifluoromethyl-phenylamino)-quinazolin-2-ylmethyl]-phosphonicacid diethyl ester] | < 1000 nM
2 | CCOP(=O)(Cc1nc(Nc2ccc(C(C)(C)C)cc2)c2ccc(-c3ncccc3C)cc2n1)OCC [Compound 16, [4-(4-tert-Butyl-phenylamino)-7-(3-methyl-pyridin-2-yl)-quinazolin-2-ylmethyl]-phosphonic acid diethylester] | < 1000 nM
3 | CCOP(=O)(Cc1nc(Nc2ccc(C(C)(C)C)cc2)c2ccc(-c3ncccc3C(F)(F)F)cc2n1)OCC [Compound 17, [4-(4-tert-Butyl-phenylamino)-7-(3-trifluoromethyl-pyridin-2-yl)-quinazolin-2-ylmethyl]-phosphonicacid diethyl ester] | < 1000 nM
4 | CCOP(=O)(O)Cc1nc(Nc2ccc(C(C)(C)C)cc2)c2ccc(-c3ncccc3C(F)(F)F)cc2n1 [Compound 18, [4-(4-tert-Butyl-phenylamino)-7-(3-trifluoromethyl-pyridin-2-yl)-quinazolin-2-ylmethyl]-phosphonicacid monoethyl ester] | < 1000 nM

Same assay, conditions: determined as described in Example 5; read-out: Ki

Row | SMILES | Ki
5 | O=C(O)CNc1nc(Nc2ccc(C(F)(F)F)cc2)c2ccc(-c3ncccc3C(F)(F)F)cc2n1 [Compound 3, [4-(4-Trifluoromethyl-phenylamino)-7-(3-trifluoromethyl-pyridin-2-yl)-quinazolin-2-ylamino]-acetic acid] | < 1000 nM
6 | CC(C)(C)c1ccc(Nc2nc(COP(=O)(OCc3ccccc3)OCc3ccccc3)nc3cc(-c4ncccc4C(F)(F)F)ccc23)cc1 [Compound 6, Phosphoric acid dibenzyl ester 4-(4-tert-butyl-phenylamino)-7-(3-trifluoromethyl-pyridin-2-yl)-quinazolin-2-ylmethyl ester] | < 1000 nM
7 | CC(C)(C)c1ccc(Nc2nc(COP(=O)(O)O)nc3cc(-c4ncccc4C(F)(F)F)ccc23)cc1 [Compound 7, Phosphoric acid mono-[4-(4-tert-butyl-phenylamino)-7-(3-trifluoromethyl-pyridin-2-yl)-quinazolin-2-ylmethyl] ester] | < 1000 nM
8 | O=P(OCc1ccccc1)(OCc1ccccc1)OCc1nc(Nc2ccc(C(F)(F)F)cc2)c2ccc(-c3ncccc3C(F)(F)F)cc2n1 [Compound 8, Phosphoric acid dibenzyl ester 4-(4-trifluoromethyl-phenylamino)-7-(3-trifluoromethyl-pyridin-2-yl)-quinazolin-2-ylmethyl ester] | < 1000 nM
9 | CC(C)(C)c1ccc(Nc2ncnc3cc(-c4ncccc4C(F)(F)F)cnc23)cc1OCC(=O)O [Compound 13, {2-tert-Butyl-5-[7-(3-trifluoromethyl-pyridin-2-yl)-pyrido[3,2-d]pyrimidin-4-ylamino]-phenoxy}-acetic acid] | < 1000 nM
10 | Cc1nc(Nc2ccc(C(C)(C)C(=O)O)cc2)c2ccc(-c3ncccc3C)nc2n1 [Compound 19, 2-Methyl-2-{4-[2-methyl-7-(3-methyl-pyridin-2-yl)-pyrido[2,3-d]pyrimidin-4-ylamino]-phenyl}-propionic acid] | < 1000 nM
11 | CC(C)(C)c1ccc(Nc2ncnc3cc(-c4ncccc4C(F)(F)F)ccc23)cc1OCCN1CCC[C@H]1C(=O)O [Compound 22, (S)-1-(2-{2-tert-Butyl-5-[7-(3-trifluoromethyl-pyridin-2-yl)-quinazolin-4-ylamino]-phenoxy}-ethyl)-pyrrolidine-2-carboxylic acid] | < 1000 nM
12 | CC(C)(C)c1ccc(Nc2ncnc3cc(-c4ncccc4C(F)(F)F)ccc23)cc1OCCOP(=O)(O)O [Compound 31, Phosphoric acid mono-(2-{2-tert-butyl-5-[7-(3-trifluoromethyl-pyridin-2-yl)-quinazolin-4-ylamino]-phenoxy}-ethyl) ester] | < 1000 nM
13 | CC(C)(C)c1ccc(Nc2nc(CP(=O)(O)O)nc3cc(-c4ncccc4C(F)(F)F)ccc23)cc1 [Compound 32, [4-(4-tert-Butyl-phenylamino)-7-(3-trifluoromethyl-pyridin-2-yl)-quinazolin-2-ylmethyl]-phosphonicacid] | < 1000 nM
14 | CC(C)(C)c1ccc(Nc2nc(N3CCC(C(=O)O)CC3)nc3nc(-c4ncccc4C(F)(F)F)ccc23)cc1 [Compound 44, 1-[4-(4-tert-Butyl-phenylamino)-7-(3-trifluoromethyl-pyridin-2-yl)-pyrido[2,3-d]pyrimidin-2-yl]-piperidine-4-carboxylic acid] | < 1000 nM
15 | COCc1nc2nc(-c3ncccc3C(F)(F)F)ccc2c(Nc2ccc(C(F)(F)F)cc2)c1C(=O)O [Compound 45, 2-Methoxymethyl-4-(4-trifluoromethyl-phenylamino)-7-(3-trifluoromethyl-pyridin-2-yl)-[1,8]naphthyridine-3-carboxylic acid] | < 1000 nM

These compounds were tested against T1, human capsaicin receptor (assay: Calcium mobilization assay). Conditions: capsaicin used as positive control; read-out: approximate EC90 concentration.
Type: cell-based
Procedure: Cells transfected with expression plasmids (as described in Example 4) and thereby expressing human capsaicin receptor are seeded and grown to 70-90% confluency in FALCON black-walled, clear-bottomed 96-well plates (#3904, BECTON-DICKINSON, Franklin Lakes, N.J.). […] After the incubation, the dye is emptied from the plates, and the cells are washed once with KRH buffer, and resuspended in KRH buffer.
To measure the ability of a test compound to agonize or antagonize a calcium mobilization response in cells expressing capsaicin receptors to capsaicin or other vanilloid agonist, the EC50 of the agonist capsaicin is first determined. An additional 20 μl of KRH buffer and 1 μl DMSO is added to each well of cells, prepared as described above. 100 μl capsaicin in KRH buffer is automatically transferred by the FLIPR instrument to each well. Capsaicin-induced calcium mobilization is monitored using either FLUOROSKAN ASCENT (Labsystems; Franklin, Mass.) or FLIPR (fluorometric imaging plate reader system; Molecular Devices, Sunnyvale, Calif.) instruments. […] In this equation, y is the maximum fluorescence signal, x is the concentration of the agonist or antagonist (in this case, capsaicin), a is the Emax, b corresponds to the EC50 value and c is the Hill coefficient. […]

Row | SMILES | EC90
16 | COc1cc(CNC(=O)CCCC/C=C/C(C)C)ccc1O [capsaicin] | ~100 nM
